Measured values as given in patent publication US20250129083A1, “IMIDAZOTETRAZINE COMPOUNDS AND TREATMENT OF TMZ-RESISTANT CANCERS” (THE BOARD OF TRUSTEES OF THE UNIVERSITY OF ILLINOIS, priority 2022, published 2025).
Where two headings read alike, the source gives them in different places.

Tests used:
[1] = test system: RKO colon cancer cell line; assay: Cell viability assay (Alamar Blue, 7 days), RKO; format: cell-based; details: 168 h
Experimental: (§1) Cell Culture and Reagents. All cell lines were grown in a 37° C., 5% CO2, humidified environment, in media containing 1% penicillin/streptomycin. Stable cell line generation of GL261 MGMT+ was purchased from Creative Biogene. Cell culture conditions are as follows: cell lines U87, T98G, and RKO were grown in EMEM with 10% FBS. D54, GL261, GL261 MGMT+, and U118MG cell lines were grown in DMEM with 10% FBS. HCT116 cells were grown in RMPI with 10% FBS. D341 Med cells were grown in EMEM with 20% FBS. Temozolomide (TMZ) was purchased from AK Scientific. TMZ analogues were synthesized as described below. Compounds were dissolved in DMSO (1% final concentration, Fisher Chemical) for cell culture studies.
(§2) Cell Viability Assays. Cells were harvested, seeded in a 96-well plate and allowed to adhere. After three hours, compound was added to each well in DMSO (1% final concentration). Cells were incubated for seven days (unless otherwise noted) before viability was assessed by the Alamar Blue assay. Raptinal (20 μM) was used as a dead control.

[2] = test system: genomic DNA of A172 cells; assay: Quantitation of O6-guanine DNA adducts in cells, A172; format: cell-based; details: MGMT-negative; LC-MS/MS
Experimental: (§3) Importantly, because CPZ was designed to release a different active species than TMZ, the alkylation pattern in a cellular context is likely different. Therefore, to assess if alkylation still occurs with CPZ, a DNA alkylation assay was performed. GL261 cells were treated with 100, 300, or 500 μM TMZ or CPZ for 8 hours after which the cells were harvested and genomic DNA was extracted and subsequently hydrolyzed to constituent deoxyribonucleosides. LC-MS/MS analysis was employed to quantify the amount of O^6-methyl-2′-deoxyguanosine (O^6-Me-dG) or O^6-propargylated-2′-O^6-deoxyguanosine (O^6-Prop-dG) in each sample.
(§4) Quantitation of O^6-guanine DNA Adducts in Cells. GL261, A172, or D54 cells were plated at 1×10^6 c/w in a 6-well plate before they were treated with compound at the indicated concentration (1% final concentration DMSO). After incubation for the indicated time, the cells were harvested and pelleted. Genomic DNA was extracted using the DNeasy Blood & Tissue Kit (Qiagen, ID: 69504). DNA was then precipitated using the following procedure: 1/10 v/v […] sodium acetate (pH 5.2) and 2.5× v/v ethanol was added to each sample which was then kept at −80° C. for 1 h. […] Hydrolyzed samples were then submitted for LC-MS/MS quantitation along with a synthetic standard. Samples were analyzed with a 5500 QTRAP LC/MS/MS system (AB Sciex) with a 1200 series HPLC system (Agilent).

in vivo = details: CD-1 IGS, mouse, brain and serum, iv, 25 mg/kg
Experimental: Biodistribution and Toxicity Studies. […] Brain tissue and blood were collected from each mouse and immediately acidified to prevent prodrug degradation. The concentration of each compound in the serum (FIG. 4A) and brain (FIG. 4B) were quantified by LC-MS/MS.
CD-1 IGS mice were administered compound in 5% DMSO, 10% Tween-20, and 85% SPE-PCD in sterile water (30% w/v) at 25 mg/kg via lateral tail vein injection. Fifteen minutes post injection, mice were sacrificed and blood was collected by lacerating the right auricle with iris scissors. An 18 gauge angiocatheter was inserted through the left ventricle, and all residual circulatory volume was removed by perfusing 0.9% saline solution via an analog peristaltic pump. Blood samples were immediately centrifuged at 13,000 rcf for five minutes and the supernatant collected and acidified with 8.5% aqueous H3PO4. Brains were harvested from the cranial vault, acidified with 0.3% aqueous H3PO4 and flash frozen. Homogenized brain samples were centrifuged twice at 13,000 rcf for ten minutes and supernatant and tissue debris were separated. The resultant supernatant was analyzed, along with plasma, by LC-MS/MS to determine compound concentrations.

genomic DNA of D54 cells = assay: Quantitation of O6-guanine DNA adducts in cells, D54; format: cell-based; details: MGMT-negative; LC-MS/MS
Experimental: as §3, §4

U87 GBM cell line = assay: Cell viability assay (Alamar Blue, 7 days), U87; format: cell-based, human; details: Homo sapiens, 168 h
Experimental: as §1, §2
(§5) Plated 1500 c/w for GL261; 600 c/w for U87; 600 c/w for U118MG; 1500 c/w for GL261 MGMT+ Incubated ovn and added 1 μL of compound in DMSO the next day. Incubated over 7 days; added Alamar Blue to assess cell viability and used 10 μM Raptinal as dead control. Error is SEM, n=3.

U118MG cells = assay: Cell viability assay (Alamar Blue, 7 days), U118MG; format: cell-based; details: Homo sapiens, U-118-MG, 168 h, MGMT (+) MMR (+), 600 c/w, SEM, n=3
Experimental: as §1, §2, §5

[3] = Solubility in IV formulations; format: physicochemical; details: for Solubility in 20/80 DMSO/PBS / Solubility in 15/7/5/73 DMSO/NMP/T20/20% SPE-βCD / Solubility in 15/10/75 DMSO/NMP/20% SPE-βCD: IV formulation; for Solubility in 20/80 DMSO/PBS: 5 mg/mL solution for 100 μL injection; for Solubility in 15/7/5/73 DMSO/NMP/T20/20% SPE-βCD / Solubility in 15/10/75 DMSO/NMP/20% SPE-βCD: 6.6 mg/mL solution for 200 μL injection
GL261 cells = assay: Cell viability assay (Alamar Blue, 7 days), GL261; format: cell-based; details: Mus musculus, GL261, 168 h
Experimental: as §1, §2, §5

T98G GBM cell line = assay: Cell viability assay (Alamar Blue, 7 days), T98G; format: cell-based, human; details: Homo sapiens, T98G, 168 h
Experimental: as §1, §2

[4] = Hydrolytic stability studies; format: physicochemical; details: PBS; for half-life at 100 μM: 37° C.; for Hydrolytic stability: percentage of prodrug remaining after 2 hours: pH 7.4, 37° C., HPLC
Experimental: Hydrolytic Stability Studies. Compound (100 μM) was incubated at 37° C. in PBS at pH 7.4 (unless otherwise noted). At the indicated time point, an aliquot was collected and analyzed by HPLC. Compound peaks were integrated and compared to the integration at to calculate the percentage of prodrug remaining.

[5] = Maximum tolerated dose / tolerability in mice; format: in vivo; details: in vivo, 66 mg/kg, once per day over 5 days
[6] = test system: E. coli WP2 uvrA pKM101 strain; assay: Ames test, E. coli WP2 uvrA pKM101; format: cell-based; details: 30 μM
Experimental: Next, we measured the mutagenicity of CPZ versus TMZ. TMZ and other DNA methylating chemotherapies are known mutagens, inducing G:C→A:T mutations due to erroneous recognition of O^6-methylguanine. […] CPZ and TMZ (at 30 μM) were also assessed in the E. coli WP2 uvrA pKM101 strain, which is considered one of the more sensitive Ames tester strains available.

[7] = test system: D341 Med medulloblastoma cell line; assay: Cell viability assay (Alamar Blue, 7 days), D341 Med; format: cell-based; details: Homo sapiens, 168 h, MGMT (+)/MMR (−), 7 day
Experimental: as §1, §2

[8] = test system: genomic DNA of GL261 cells; assay: Quantitation of O6-guanine DNA adducts in cells, GL261; format: cell-based, mouse; details: 100, 300, or 500 μM, 8 hours; LC-MS/MS
Experimental: as §3, §4

[9] = 7 days, read-out: Activity, RKO
[10] = MGMT (+)/MMR (−), 7 day, read-out: IC50, RKO
[11] = MGMT (−) MMR (+), 600 c/w, SEM, n=3, read-out: Activity, U87
[12] = 7 day dose-response, read-out: IC50, GL261 (parental)
[13] = MGMT (−) MMR (+), 7 days, 1500 c/w, SEM, n=3, read-out: Activity, GL261
[14] = MGMT (+) MMR (+), read-out: Activity, T98G
[15] = pH 7.4, calculated from hydrolytic stability data, read-out: Half-life, pH 7.4
[16] = female, C57BL/6, mouse, ip, intraperitoneal, read-out: MTD, I.P.

For `Cn1nnc2c(C(N)=O)ncn2c1=O` [TMZ, temozolomide, reference compound], the IC50 [1, 9] was over 1000 µM, the IC50 [1, 10] was over 1000 µM and the “O6-dG alkylation adducts, A172” value [2] was “dose-dependent increase in methyl adducts”. For the same compound, the Kp at 15 min (in vivo) was 0.08 ± 0.01, the “O6-dG alkylation adducts, D54” value (genomic DNA of D54 cells) was “dose-dependent increase in methyl adducts” and the IC50 (U87 GBM cell line; [11]) was 51 ± 8 µM. The IC50 (U87 GBM cell line; MGMT (−), Alamar Blue, error SEM, n ≥ 3, read-out: Seven-day IC50, U87) was about 50 µM, the IC50 (U118MG cells) was 322 ± 7 µM and the “Solubility in 20/80 DMSO/PBS” value [3] was “Soluble*”. For the same compound, the “Solubility in 15/7/5/73 DMSO/NMP/T20/20% SPE-βCD” value [3] was “Soluble”, the “Solubility in 15/10/75 DMSO/NMP/20% SPE-βCD” value [3] was “Soluble” and the IC50 (GL261 cells; [12]) was 120 µM. The IC50 (GL261 cells; [13]) was 120 ± 62 µM, the IC50 (T98G GBM cell line; [14]) was 570 ± 20 µM and the IC50 (T98G GBM cell line; MGMT (+), Alamar Blue, error SEM, n ≥ 3, read-out: Seven-day IC50, T98G) was over 550 µM. For the same compound, the half-life at 100 μM ([4]; pH 7, calculated from hydrolytic stability data, read-out: Half-life, pH 7) was 2.97 ± 0.0833 h, the “Hydrolytic stability: percentage of prodrug remaining after 2 hours” value [4] was 40% and the half-life at 100 μM [4, 15] was about 1.5 h. The half-life at 100 μM ([4]; pH 8, calculated from hydrolytic stability data, read-out: Half-life, pH 8) was 0.483 ± 0.0167 h, the MTD at 5 days [5, 16] was 66 mg/kg and the MTD at 5 days ([5]; mouse, intravenous, read-out: MTD, I.V.) was 66 mg/kg. For the same compound, the “Ames test revertant colonies, E. coli WP2 uvrA pKM101” value [6] was 95/96, the “Mutagenicity, E. coli WP2 uvrA pKM101” value [6] was “mutagenic” and the IC50 [7] was 460 µM. For the same compound, the “O6-alkyl-2′-deoxyguanosine adducts (O6-Me-dG for TMZ, O6-Prop-dG for CPZ), GL261” value [8] was “clear dose-dependent increase”.

With `C#CCn1nnc2c(Cl)ncn2c1=O` [CPZ, 8-chloro-3-(prop-2-yn-1-yl)imidazo[5,1-d][1,2,3,5]tetrazin-4(3H)-one] the IC50 [1, 9] was 10 ± 1 µM, the IC50 [1, 10] was 10 µM and the “O6-dG alkylation adducts, A172” value [2] was “did not harbor measurable levels of the propargyl adduct”. For the same compound, the Kp at 15 min (in vivo) was 1.2 ± 0.2, the “O6-dG alkylation adducts, D54” value (genomic DNA of D54 cells) was “did not harbor measurable levels of the propargyl adduct” and the IC50 (U87 GBM cell line; [11]) was 16 ± 6 µM. For the same compound, the IC50 (U118MG cells) was 17 ± 1 µM, the “Solubility for IV administration” value [3] was “insufficient solubility for IV administration” and the “Solubility in 20/80 DMSO/PBS” value [3] was “Insoluble”. For the same compound, the “Solubility in 15/7/5/73 DMSO/NMP/T20/20% SPE-βCD” value [3] was “Insoluble”, the “Solubility in 15/10/75 DMSO/NMP/20% SPE-βCD” value [3] was “Insoluble” and the IC50 (GL261 cells; [12]) was 28 µM. For the same compound, the IC50 (GL261 cells; [13]) was 28 ± 3 µM, the IC50 (T98G GBM cell line; [14]) was 27 ± 6 µM and the “Hydrolytic stability: percentage of prodrug remaining after 2 hours” value [4] was 30%. For the same compound, the half-life at 100 μM [4, 15] was 1.2 h, the MTD at 5 days [5, 16] was 66 mg/kg and the “Ames test revertant colonies, E. coli WP2 uvrA pKM101” value [6] was “no revertant colonies”. For the same compound, the “Mutagenicity, E. coli WP2 uvrA pKM101” value [6] was “non-mutagenic”, the IC50 [7] was 8 µM and the “O6-alkyl-2′-deoxyguanosine adducts (O6-Me-dG for TMZ, O6-Prop-dG for CPZ), GL261” value [8] was “no detection of O^6-Prop-dG adducts”.
